Our source for the IC50 values is EP0179667B1, “N6-substituted adenosines” (priority 1984, dated 1986).

The target of one experiment is T1, adenosine A1 receptor (Rattus norvegicus, UniProt P25099).
T1 construct: Whole brain minus cerebellum and brainstem from male Long Evans rats (150-200 g) was homogenized; from tissue; host or cells: rat whole brain minus cerebellum and brainstem, membrane homogenate
T1 sequence (P25099 1-326): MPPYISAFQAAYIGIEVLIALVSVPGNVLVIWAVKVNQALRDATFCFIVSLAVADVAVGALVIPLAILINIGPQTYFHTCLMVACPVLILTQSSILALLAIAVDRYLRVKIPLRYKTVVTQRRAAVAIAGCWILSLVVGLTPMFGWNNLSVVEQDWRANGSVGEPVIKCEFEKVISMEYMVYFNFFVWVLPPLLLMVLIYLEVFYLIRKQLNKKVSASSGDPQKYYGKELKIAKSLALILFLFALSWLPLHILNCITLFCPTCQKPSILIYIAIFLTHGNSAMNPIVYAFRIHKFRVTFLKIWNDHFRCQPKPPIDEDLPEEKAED
The experiment can be described thus: Adenosine Receptor Binding - A1 Receptor Affinity (RBA1). The note with it: [3H]-CHA, rat whole brain membranes; read-out: RBA-1. Here is the method: Adenosine Receptor Binding - A1 Receptor Affinity (RBA1)
Whole brain minus cerebellum and brainstem from male Long Evans rats (150-200 g) was homogenized in 30 volumes of ice-cold 0.05 M Tris-HCI buffer pH 7.7 using a Brinkman Polytron PT-10 (setting number 6 for 20 seconds) and centrifuged for ten minutes at 20,000 x g (Sorvall RC-2), 4°C. The supernatant was discarded, and the pellet was resuspended and centrifuged as before. The pellet was resuspended in 20 ml Tris-HCI buffer containing two International Units/ml of adenosine deaminase (Sigma type III from calf intestinal mucosa), incubated at 37°C for 30 minutes, then subsequently at 0°C for ten minutes. The homogenate was again centrifuged, and the final pellet was resuspended in ice-cold 0.05 M Tris-HCI buffer pH 7.7 to a concentration of 20 mg/ml original wet tissue weight and used immediately.
Tissue homogenate (10 mg/ml) was incubated in 0.05 M Tris-HCI buffer pH 7.7 containing 1.0 nM [^3H]-N^6-cyclohexyladenosine (^3H]-CHA) with or without test agents in triplicate for one hour at 25°C. Incubation volume was 2 ml. Unbound [^3H]-CHA was separated by rapid filtration under reduced pressure through Whatman glass fiber (GF/B) filters. The filters were rinsed three times with 5 ml of ice cold 0.05 M Tris-HCI buffer pH 7.7. The radio-labeled ligand retained on the filter was measured by liquid scintillation spectrophotometry after shaking the filters for one hour or longer on a mechanical shaker in 10 ml of Beckman Ready Solv HP scintillation cocktail.
Nonspecific binding was defined as the binding which occurred in the presence of 1 mM thophylline. […] The Scatchard plot was calculated by linear regression of the line obtained by plotting the amount of radioligand bound (pmoles/gram of tissue) versus [formula] Since the amount of radioligand bound was a small fraction of the total amount added, free radioligand was defined as the concentration (nM) of radioligand added to the incubation mixture. The Hill coefficient was calculated by linear regression of the line obtained by plotting the log of the bound radioligand vs the log of the [formula] The maximal number of binding sites (Bmax) was calculated from the Scatchard plot.

A further experiment addresses T2, adenosine A2 receptor (Rattus norvegicus, UniProt P30543).
T2 construct: 5 mg original tissue weight of rat weight of rat striatal membranes; tissue Pel-Freez (Rogers, Arkansas); host or cells: rat striatum, membrane preparation
The experiment can be described thus: Adenosine Receptor Binding - A2 Receptor Affinity (RBA2). The note with it: [3H]NECA, rat striatal membranes; read-out: RBA-2. Here is the method:
Adenosine Receptor Binding - A2 Receptor Affinity (RBA2)
Brains from 200-500 g mixed sex Sprague-Dawley rats were purchased from Pel-Freez (Rogers, Arkansas). […] Brains were thawed and then kept on ice while the striata were dissected out. […] When needed, tissue was thawed at room temperature, disrupted in a Polytron, and kept on ice until used.
All incubations were for 60 minutes at 25°C in 12x75 mm glass tubes containing 1 ml Tris with 5 mg original tissue weight of rat weight of rat striatal membranes, 4 nM [^3H]-N-ethyl adenosine-5'-carboxamide ([^3H]NECA), 50 nM N^6-cyclopentyladenosine (to eliminate A1 receptor binding), 10 mM MgCl2, 0.1 units/ml of adenosine deaminase and 1% dimethylsulfoxide. N^6-Cyclopentyladenosine was dissolved at 10 mM in 0.02 N HCI and diluted in Tris. […] Test compounds were dissolved at 10 mM in dimethylsulfoxide on the same day as the experiment, and diluted in dimethylsulfoxide to 100x the final incubation concentration. […] [^3H]NECA was diluted to 40 nM in Tris. The membrane suspension (5 mg/0.79 ml) contained sufficient MgC12 and adenosine deaminase to give 10 mM and 0.1 units/ml, respectively, final concentration in the incubation. For test compounds with lC50 values less than 1 µM, the order of additions was test compound (10 µl), N^6-cyclopentyladenosine (100 µl), [^3H]NECA (100 µl), and membranes (0.79 ml). […] After all additions, the rack of tubes was vortexed, and the tubes were then incubated for 60 min at 25°C in a shaking water bath. The rack of tubes was vortexed an additional time halfway through the incubation.
incubations were terminated by filtration through 2.4 cm GF/B filters under reduced pressure. Each tube was filtered as follows: the contents of the tube were poured onto the filter, 4 ml of ice-cold Tris were added to the tube and the contents poured onto the filter, and the filter was washed twice with 4 ml of ice-cold Tris. The filtration was complete in about twelve seconds.
Nonspecific binding was defined as binding in the presence of 100 µM N^6-cyclopentyladenosine, and specific binding was defined as total binding minus nonspecific binding. The IC50 was calculated by weighed nonlinear least squares curve-fitting to the mass-action equation. [formula] • where Y is cpm bound • T is cpm total binding without drug • S is cpm specific binding without drug • D is the concentration of drug • and K is the IC50 of the drug Weighting factors were calculated under the assumption that the standard deviation was proportional to the predicted value of Y. Nonspecific binding was treated as a very large (infinite) concentration of drug in the computer analysis.

T2 sequence (P30543 whole entry): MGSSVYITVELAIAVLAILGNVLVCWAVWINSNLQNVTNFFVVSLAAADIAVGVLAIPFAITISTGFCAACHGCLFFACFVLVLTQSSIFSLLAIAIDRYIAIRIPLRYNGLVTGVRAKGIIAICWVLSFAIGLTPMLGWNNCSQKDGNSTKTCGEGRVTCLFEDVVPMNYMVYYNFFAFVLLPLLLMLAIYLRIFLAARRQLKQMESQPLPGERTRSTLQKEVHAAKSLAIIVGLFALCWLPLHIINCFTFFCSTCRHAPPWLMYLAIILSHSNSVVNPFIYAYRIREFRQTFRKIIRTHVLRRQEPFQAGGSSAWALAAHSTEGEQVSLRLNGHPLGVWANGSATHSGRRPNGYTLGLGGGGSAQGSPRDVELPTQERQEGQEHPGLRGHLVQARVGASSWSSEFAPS

Regarding `COc1ccc2c(c1)C(Nc1ncnc3c1ncn3[C@@H]1O[C@H](CO)[C@@H](O)[C@H]1O)CCC2` (single isomer, unassigned) [Example 5, N6-[1-(7-Methoxy)-tetralinyl]-adenosine], the IC50 came out at 0.04 µM on adenosine A1 receptor and 0.918 µM at adenosine A2 receptor.
The like results for `COc1ccc2c(c1)C(Nc1ncnc3c1ncn3[C@@H]1O[C@H](CO)[C@@H](O)[C@H]1O)CCC2` (single isomer, unassigned) [Example 8] were, in that order, 0.021 µM and 0.407 µM.
The like results for `OC[C@H]1O[C@@H](n2cnc3c(NC4CCCc5ccccc54)ncnc32)C(O)[C@@H]1O` (stereo in doubt) [Example 1, (R,S)-N^6-[1-Tetralinyl]-adenosine] were, in that order, 0.059 µM and 0.476 µM.
On to `OC[C@H]1O[C@@H](n2cnc3c(NC4CCCc5ccccc54)ncnc32)[C@H](O)[C@@H]1O` (stereo partly drawn) [Example 2, (R)-N^6-[1-Tetralinyl]-adenosine], for which the figures for the IC50 at adenosine A1 receptor and on adenosine A2 receptor were 0.044 µM and 0.243 µM, respectively.
On the same counts, the results for `OC[C@H]1O[C@H](n2cnc3c(NC4CCCc5ccccc54)ncnc32)[C@H](O)[C@@H]1O` (stereo partly drawn) [Example 3, (S)-N^6-[1-Tetralinyl]-adenosine] are 0.403 µM and 2.03 µM.
The like results for `CC1CCc2ccccc2C1Nc1ncnc2c1ncn2[C@@H]1O[C@H](CO)[C@@H](O)[C@H]1O` (stereo partly shown) [Example 4, N^6-[1-(2-Methyl)-tetralinyl]-adenosine] were, in that order, 0.019 µM and 0.524 µM.
The like results for `COc1ccc2c(c1)CCCC2Nc1ncnc2c1ncn2[C@@H]1O[C@H](CO)[C@@H](O)[C@H]1O` (stereo partly shown) [Example 6, N^6-[1-(6-Methoxy)-tetralinyl]-adenosine] were, in that order, 0.126 µM and 4.37 µM.
As to `COc1cccc2c1CCCC2Nc1ncnc2c1ncn2[C@@H]1O[C@H](CO)[C@@H](O)[C@H]1O` (stereo partly shown) [Example 7, N^6-[5-Methoxy-1-aminotetralin]-adenosine], the IC50 is 0.042 µM on adenosine A1 receptor and 0.324 µM on adenosine A2 receptor.
Regarding `COc1ccc2c(c1)C(Nc1ncnc3c1ncn3[C@H]1O[C@H](CO)[C@@H](O)[C@H]1O)CCC2` (stereo partly drawn) [Example 9, (S)-N^6-(7-methoxy-1-tetralinyl)-adenosine], the IC50 is 4.55 µM on adenosine A1 receptor and 50.5 µM on adenosine A2 receptor.
On the same counts, the results for `COc1cccc2c1CCC[C@@H]2Nc1ncnc2c1ncn2[C@@H]1O[C@H](CO)[C@@H](O)[C@H]1O` [Example 10, (S)-N^6-[5-methoxy-1-aminotetralin]-adenosine] are 0.019 µM and 0.217 µM.
The like results for `CC(=O)Oc1ccccc1C(=O)OC[C@H]1O[C@@H](n2cnc3c(NC4CCCc5ccccc54)ncnc32)[C@H](O)[C@@H]1O` (stereo partly shown) [Example 14, N^6-(1-tetralinyl)-5'-O-(O-acetylsalicoyl)adenosine] were, in that order, 8.22 µM and 57.1 µM.
The like results for `CC(=O)OC[C@H]1O[C@@H](n2cnc3c(NC4CCCc5ccccc54)ncnc32)[C@H](O)[C@@H]1O` (stereo partly shown) [Example 15, N^6-(1-tetralinyl)-5'-acetyl-adenosine] were, in that order, 0.5 µM and 4.44 µM.
On to `OC[C@H]1O[C@@H](n2cnc3c(NC4CCCc5c(O)cccc54)ncnc32)[C@H](O)[C@@H]1O` (stereo partly shown) [Example 16, N^6-[1-(5-hydroxy)-tetralinyl]-adenosine], for which the results for the IC50 on adenosine A1 receptor and on adenosine A2 receptor were 0.036 µM and 0.26 µM, respectively.
On the same counts, the results for `OC[C@H]1O[C@@H](n2cnc3c(NC4CCCc5ccc(O)cc54)ncnc32)[C@H](O)[C@@H]1O` (stereo partly shown) [Example 17] are 0.071 µM and 0.238 µM.
In the case of `Cc1cc(C)c2c(c1)C(Nc1ncnc3c1ncn3[C@@H]1O[C@H](CO)[C@@H](O)[C@H]1O)CCC2` (stereo partly shown) [Example 18, N^6-[1-(5,7-dimethyl)-tetralinya]-adenosine], the IC50 on adenosine A1 receptor amounted to 0.02 µM; on adenosine A2 receptor, 0.366 µM.
As for `OC[C@H]1O[C@@H](n2cnc3c(NCC4CCc5ccccc54)ncnc32)[C@H](O)[C@@H]1O` (stereo partly shown) [Example 21, N^6-[2,3-dihydro-1H-inden-1-yl]methyladenosine], the IC50 on adenosine A1 receptor amounted to 0.009 µM; at adenosine A2 receptor, 0.099 µM.
In the case of `OC[C@H]1O[C@@H](n2cnc3c(NCC4=CCc5ccccc54)ncnc32)[C@H](O)[C@@H]1O` [Example 22, N^6-[1H-inden-3-yl]methyladenosine], the IC50 amounted to 0.057 µM at adenosine A1 receptor and 0.0655 µM on adenosine A2 receptor.
For `OC[C@H]1O[C@@H](n2cnc3c(NCC4(O)CCCc5ccccc54)ncnc32)[C@H](O)[C@@H]1O` (stereo partly shown) [Example 23, N^6-[1-hydroxy-1-tetralinyl]methyl adenosine], the IC50 came to 0.108 µM on adenosine A1 receptor and 2.85 µM at adenosine A2 receptor.
On the same counts, the results for `OC[C@H]1O[C@@H](n2cnc3c(NCC4=CCCc5ccccc54)ncnc32)[C@H](O)[C@@H]1O` [Example 24, N^6-[3,4-dihydro-1-naphthalenyl]methyladenosine] are 0.159 µM and 0.0765 µM.
The like results for `OC[C@H]1O[C@@H](n2cnc3c(NCC4(O)CCc5ccccc54)ncnc32)[C@H](O)[C@@H]1O` (stereo partly shown) [Example 25, N^6-[2,3-dihydro-1-hydroxy-1H-inden-1-yl]methyladenosine] were, in that order, 0.12 µM and 0.987 µM.
The like results for `OC[C@H]1O[C@@H](n2cnc3c(NCC4=CCCCc5ccccc54)ncnc32)[C@H](O)[C@@H]1O` [Example 26, N^6-(1-benzocycloheptenyl)methyladenosine] were, in that order, 0.713 µM and 2.7 µM.
Consider `OC[C@H]1O[C@@H](n2cnc3c(NCC4(O)CCCCc5ccccc54)ncnc32)[C@H](O)[C@@H]1O` (stereo partly shown) [Example 27, N^6-(1-hydroxy-1-benzocycloheptyl]methyladenosine], for which the IC50 on adenosine A1 receptor worked out at 0.445 µM; on adenosine A2 receptor it was 4.01 µM.
Consider `OC[C@H]1O[C@@H](n2cnc3c(NCC4CCCCc5ccccc54)ncnc32)[C@H](O)[C@@H]1O` (stereo partly shown) [Example 28, N^6-(1-benzocycloheptyl)methyladenosine], for which the IC50 stood at 0.208 µM on adenosine A1 receptor and 1.27 µM on adenosine A2 receptor.
